The source made the active and inactive calls.
What was measured:
Type in all cases: functional
[1] = system: CCRF-CEM; assay: Antiproliferative activity against human CCRF-CEM cells at 10 uM assessed as cell growth inhibition relative to control
[2] = system: HL-60(TB); assay: Antiproliferative activity against human HL-60(TB) cells at 10 uM assessed as cell growth inhibition relative to control
[3] = system: K562; assay: Antiproliferative activity against human K562 cells at 10 uM assessed as cell growth inhibition relative to control
[4] = system: MOLT-4; assay: Antiproliferative activity against human MOLT4 cells at 10 uM assessed as cell growth inhibition relative to control
[5] = system: RPMI8266; assay: Antiproliferative activity against human […] cells at 10 uM assessed as cell growth inhibition relative to control
[6] = system: A549; assay: Antiproliferative activity against human A549 cells at 10 uM assessed as cell growth inhibition relative to control
[7] = system: EKVX; assay: Antiproliferative activity against human EKVX cells at 10 uM assessed as cell growth inhibition relative to control
[8] = system: PC-3; assay: Antiproliferative activity against human PC3 cells at 10 uM assessed as cell growth inhibition relative to control
[9] = system: HOP-62; assay: Antiproliferative activity against human HOP62 cells at 10 uM assessed as cell growth inhibition relative to control
[10] = system: HOP-92; assay: Antiproliferative activity against human HOP92 cells at 10 uM assessed as cell growth inhibition relative to control
[11] = system: NCI-H226; assay: Antiproliferative activity against human NCI-H226 cells at 10 uM assessed as cell growth inhibition relative to control
[12] = system: NCI-H23; assay: Antiproliferative activity against human NCI-H23 cells at 10 uM assessed as cell growth inhibition relative to control
[13] = system: NCI-H322M; assay: Antiproliferative activity against human NCI-H322M cells at 10 uM assessed as cell growth inhibition relative to control
[14] = system: NCI-H460; assay: Antiproliferative activity against human NCI-H460 cells at 10 uM assessed as cell growth inhibition relative to control
[15] = system: NCI-H522; assay: Antiproliferative activity against human NCI-H522 cells at 10 uM assessed as cell growth inhibition relative to control
[16] = system: COLO 205; assay: Antiproliferative activity against human COLO205 cells at 10 uM assessed as cell growth inhibition relative to control
[17] = system: HCC 2998; assay: Antiproliferative activity against human HCC2998 cells at 10 uM assessed as cell growth inhibition relative to control
[18] = system: HCT-116; assay: Antiproliferative activity against human HCT116 cells at 10 uM assessed as cell growth inhibition relative to control
[19] = system: HCT-15; assay: Antiproliferative activity against human HCT15 cells at 10 uM assessed as cell growth inhibition relative to control
[20] = system: HT-29; assay: Antiproliferative activity against human HT-29 cells at 10 uM assessed as cell growth inhibition relative to control
[21] = system: KM12; assay: Antiproliferative activity against human KM12 cells at 10 uM assessed as cell growth inhibition relative to control
[22] = system: SW-620; assay: Antiproliferative activity against human SW620 cells at 10 uM assessed as cell growth inhibition relative to control
[23] = system: LOX IMVI; assay: Antiproliferative activity against human LOXIMVI cells at 10 uM assessed as cell growth inhibition relative to control
[24] = system: Malme-3M; assay: Antiproliferative activity against human MALME-3M cells at 10 uM assessed as cell growth inhibition relative to control
[25] = system: M14; assay: Antiproliferative activity against human M14 cells at 10 uM assessed as cell growth inhibition relative to control
[26] = system: SK-MEL-2; assay: Antiproliferative activity against human SK-MEL-2 cells at 10 uM assessed as cell growth inhibition relative to control
[27] = system: SK-MEL-28; assay: Antiproliferative activity against human SK-MEL-28 cells at 10 uM assessed as cell growth inhibition relative to control
[28] = system: SK-MEL-5; assay: Antiproliferative activity against human SK-MEL-5 cells at 10 uM assessed as cell growth inhibition relative to control
[29] = system: UACC-257; assay: Antiproliferative activity against human UACC257 cells at 10 uM assessed as cell growth inhibition relative to control
[30] = system: UACC-62; assay: Antiproliferative activity against human UACC62 cells at 10 uM assessed as cell growth inhibition relative to control
[31] = system: SF-268; assay: Antiproliferative activity against human SF268 cells at 10 uM assessed as cell growth inhibition relative to control
[32] = system: SF-295; assay: Antiproliferative activity against human SF295 cells at 10 uM assessed as cell growth inhibition relative to control
[33] = system: SF-539; assay: Antiproliferative activity against human SF539 cells at 10 uM assessed as cell growth inhibition relative to control
[34] = system: SNB-19; assay: Antiproliferative activity against human SNB19 cells at 10 uM assessed as cell growth inhibition relative to control
[35] = system: SNB-75; assay: Antiproliferative activity against human SNB75 cells at 10 uM assessed as cell growth inhibition relative to control
[36] = system: U-251; assay: Antiproliferative activity against human U251 cells at 10 uM assessed as cell growth inhibition relative to control
[37] = system: IGROV-1; assay: Antiproliferative activity against human IGROV1 cells at 10 uM assessed as cell growth inhibition relative to control
[38] = system: OVCAR-3; assay: Antiproliferative activity against human OVCAR-3 cells at 10 uM assessed as cell growth inhibition relative to control
[39] = system: OVCAR-4; assay: Antiproliferative activity against human OVCAR4 cells at 10 uM assessed as cell growth inhibition relative to control
[40] = system: OVCAR-5; assay: Antiproliferative activity against human OVCAR5 cells at 10 uM assessed as cell growth inhibition relative to control
[41] = system: OVCAR-8; assay: Antiproliferative activity against human OVCAR8 cells at 10 uM assessed as cell growth inhibition relative to control
[42] = system: SK-OV-3; assay: Antiproliferative activity against human SKOV3 cells at 10 uM assessed as cell growth inhibition relative to control
[43] = system: 786-0; assay: Antiproliferative activity against human 786-0 cells at 10 uM assessed as cell growth inhibition relative to control
[44] = system: A498; assay: Antiproliferative activity against human A498 cells at 10 uM assessed as cell growth inhibition relative to control
[45] = system: ACHN; assay: Antiproliferative activity against human ACHN cells at 10 uM assessed as cell growth inhibition relative to control
[46] = system: CAKI-1; assay: Antiproliferative activity against human Caki1 cells at 10 uM assessed as cell growth inhibition relative to control
[47] = system: RXF 393; assay: Antiproliferative activity against human RXF393 cells at 10 uM assessed as cell growth inhibition relative to control
[48] = system: SN12C; assay: Antiproliferative activity against human SN12C cells at 10 uM assessed as cell growth inhibition relative to control
[49] = system: TK-10; assay: Antiproliferative activity against human TK10 cells at 10 uM assessed as cell growth inhibition relative to control
[50] = system: UO-31; assay: Antiproliferative activity against human UO31 cells at 10 uM assessed as cell growth inhibition relative to control
[51] = system: BT-549; assay: Antiproliferative activity against human BT549 cells at 10 uM assessed as cell growth inhibition relative to control
[52] = system: Hs-578T; assay: Antiproliferative activity against human Hs 578T cells at 10 uM assessed as cell growth inhibition relative to control
[53] = system: MCF7; assay: Antiproliferative activity against human MCF7 cells at 10 uM assessed as cell growth inhibition relative to control
[54] = system: MDA-MB-231; assay: Antiproliferative activity against human MDA-MB-231 cells at 10 uM assessed as cell growth inhibition relative to control
[55] = system: MDA-MB-468; assay: Antiproliferative activity against human MDA-MB-468 cells at 10 uM assessed as cell growth inhibition relative to control
[56] = system: T47D; assay: Antiproliferative activity against human T47D cells at 10 uM assessed as cell growth inhibition relative to control
[57] = system: DU-145; assay: Antiproliferative activity against human DU145 cells at 10 uM assessed as cell growth inhibition relative to control

Measured: growth inhibition (GI)

[N-]=[N+]=NC[C@H]1O[C@@H](n2cnc3c(NC(=O)Nc4ccccc4)ncnc32)[C@@H]2OC(=O)C[C@@H]21
inactive: [1] | [2] | [3] | [4] | [5] | [6] | [7] | [8] | [9] | [10] | [11] | [12] | [13] | [14] | [15] | [16] | [17] | [18] | [19] | [20] | [21] | [22] | [23] | [24] | [25] | [26] | [27] | [28] | [29] | [30] | [31] | [32] | [33] | [34] | [35] | [36] | [37] | [38] | [39] | [40] | [41] | [42] | [43] | [44] | [45] | [46] | [47] | [48] | [49] | [50] | [51] | [52] | [53] | [54] | [55] | [56] | [57]
